This is an account of results in patent publication US20120115798A1, “METHOD FOR IMPROVING THE IMMUNITY OF A COMPANION ANIMAL” (priority 2010, published 2012).

What all share (assay type): in vivo, dog (Labrador Retrievers)
One test concerns CD18+ immune cells. Kind of test: Flow cytometry of CD18+ immune cells in blood of dogs fed mannoheptulose diet. Particulars: for CD18+ immune cells: analyzed by age. From the text:
Eighty (n=80) Labrador Retrievers were randomized by age, gender, and littermate to receive either a complete and nutritionally balanced control diet that is similar to Eukanuba Senior Large Breed or an experimental diet that is identical to the control diet except for the inclusion of mannoheptulose as disclosed below. The dogs were split into two study groups. Study 1: A total of 39 older Labrador Retrievers are fed a nutritionally-balanced composition providing mannoheptulose at levels of 0 or about 2 mg/kg of body weight of the dog. Average age of the dogs (12 neutered males, 27 spayed females) at the start of a 4-year study is 6.7 years with a range of 5.1 to 8.2 years of age for the youngest and oldest dog within the cohort, respectively. The control composition is fed as a nutritionally-balanced composition, and it contains no mannoheptulose (0 mg/kg), avocado extract, avocado meal, or avocado concentrate. The test composition is the nutritionally-balanced control composition formulated with avocado extract, avocado meal, or avocado concentrate to provide mannoheptulose at a dose of about 2 mg/kg body weight of the dog. Older dogs are fed one-half their daily allotment of food at 0730 and 1430 each day. Dogs were fed to maintain body weight and body composition score (BCS) within a 2-4 score range. If food adjustments were made, they were made on a quarterly basis. All dogs were fasted overnight and morning meals were withheld until blood collections could be conducted for all immune measurements. Water is provided ad lib. Study 2: A total of 41 younger Labrador Retrievers are fed a nutritionally-balanced composition providing mannoheptulose at levels of 0 or about 2 mg/kg of body weight of the dog. Average age of the dogs (12 neutered males, 29 spayed females) at the start of the 36-month feeding study is 4.0 years with a range of 2.0 to 6.1 years of age for the youngest and oldest dog within the cohort, respectively. […] Cell populations were analyzed on a FACScan Flow Cytometer (Becton Dickinson) using CellQuest Pro Software.

The test system of a further test is T cells. Kind of test: Lymphocyte blastogenesis (3H-thymidine), T cell mitogenic stimulation of PBMCs from dogs fed mannoheptulose diet. From the text:
(§1) Phytohaemagglutinin (PHA), the lectin extract from the red kidney bean (Phaseolus vulgaris), contains potent, T-cell mitogenic activity (Hammerstrom, S. et al. (1982) Proc. Nall. Acad. Sci. USA 79, 1611-1615). Pokeweed mitogen (PWM), derived from Phytolacca Americana, is a B cell mitogen (Schreck et al., Annals of Clinical and Laboratory Science, Vol 12, Issue 6, 455-462). Together these three mitogens are used to stimulate immune cells in vitro in the lymphocyte blastogenesis assay, a well accepted indicator of immune response in vivo. Many studies have shown this assay to be responsive to the age-associated decline in immune system response (Goldrosen et al., 1977—Journal of surgical oncology 9: 229-234). A lower proliferative capacity indicates the immune cells cannot become activated and multiply as efficiently (a key step in the process of mounting an effective immune response).
Eighty (n=80) Labrador Retrievers were randomized by age, gender, and littermate to receive either a complete and nutritionally balanced control diet that is similar to Eukanuba Senior Large Breed or an experimental diet that is identical to the control diet except for the inclusion of mannoheptulose as disclosed below. The dogs were split into two study groups.
Study 1: A total of 39 older Labrador Retrievers are fed a nutritionally-balanced composition providing mannoheptulose at levels of 0 or about 2 mg/kg of body weight of the dog. Average age of the dogs (12 neutered males, 27 spayed females) at the start of a 4-year study is 6.7 years with a range of 5.1 to 8.2 years of age for the youngest and oldest dog within the cohort, respectively. The control composition is fed as a nutritionally-balanced composition, and it contains no mannoheptulose (0 mg/kg), avocado extract, avocado meal, or avocado concentrate. The test composition is the nutritionally-balanced control composition formulated with avocado extract, avocado meal, or avocado concentrate to provide mannoheptulose at a dose of about 2 mg/kg body weight of the dog. […]

A further test relates to B cells. In words: Lymphocyte blastogenesis (3H-thymidine), B cell mitogenic stimulation of PBMCs from dogs fed mannoheptulose diet.
Text: as §1
Eighty (n=80) Labrador Retrievers were randomized by age, gender, and littermate to receive either a complete and nutritionally balanced control diet that is similar to Eukanuba Senior Large Breed or an experimental diet that is identical to the control diet except for the inclusion of mannoheptulose as disclosed below. The dogs were split into two study groups. […]

In a further test the test system is 8-OHdG. In words: Serum 8-OHdG ELISA (DNA oxidation) in dogs fed mannoheptulose diet. From the text:
8-Oxo-2′-deoxyguanosine (8-OHdG) is an oxidized derivative of deoxyguanosine. 8-OHdG is one of the major products of DNA oxidation. As part of the immune response, T and B cells must proliferate (become activated and divide). A key step to robust proliferation is DNA replication. If cells have damaged DNA or must repair DNA, this crucial step can be hindered. […] By lowering DNA damage in the mannoheptulose fed dogs, immune cell replication would be facilitated, helping to enable a key step in the activation cascade of the immune system. Eighty (n=80) Labrador Retrievers were randomized by age, gender, and littermate to receive either a complete and nutritionally balanced control diet that is similar to Eukanuba Senior Large Breed or an experimental diet that is identical to the control diet except for the inclusion of mannoheptulose as disclosed below. The dogs were split into two study groups. Study 1: A total of 39 older Labrador Retrievers are fed a nutritionally-balanced composition providing mannoheptulose at levels of 0 or about 2 mg/kg of body weight of the dog. […] Amount of 8-OHDG is quantified using a commercially available ELISA kit from Oxis Health Products, catalog #21026. […] Add […] of the Stop Solution, mix, wait 3 minutes and read the absorbance at 450 nm.

The mark [1] stands for this setting: summary table, aging dogs consuming diet with MH, direction of change.

With `O=C(CO)[C@@H](O)[C@@H](O)[C@H](O)[C@H](O)CO` [mannoheptulose], the “CD18+ immune cells” value in the test with CD18+ immune cells (dog group 1 (older dogs), test diet delivering 2 mg mannoheptulose per kg body weight vs diet matched controls, FIG. 1) is listed as “significant attenuation in the increase of CD18+ immune cells”; in the test on CD18+ immune cells (dog group 2 (younger dogs), test diet with mannoheptulose about 2 mg/kg vs diet matched controls, FIG. 2), “trend for attenuation in the increase of CD18+ immune cells”. In addition, in the test on CD18+ immune cells (setting [1]), the “% CD18 + cells” value is on record as “↓”. For the same molecule, in the test on T cells (dog groups 1 and 2, mannoheptulose diet about 2 mg/kg vs control diet, FIGS. 3 and 4), the “T cell mitogenic stimulation to ConA” value is “either a statistical trend or a statistical improvement in T cell mitogenic stimulation to ConA”. Besides, the “T cell mitogenic stimulation to PHA” value in the test with T cells (dog groups 1 and 2, mannoheptulose diet about 2 mg/kg vs control diet, FIGS. 5 and 6) was “either a statistical trend or a statistical improvement in T cell mitogenic stimulation to PHA”. Moreover, the T cell proliferation result in the test on T cells (setting [1]) is “↑”. Also, the “B cell mitogenic stimulation to PWM” value in the test on B cells (dog groups 1 and 2, mannoheptulose diet about 2 mg/kg vs control diet, FIGS. 7 and 8) is on record as “either a statistical trend or a statistical improvement in B cell mitogenic stimulation to PWM”. Besides, the B cell proliferation result in the test with B cells (setting [1]) is “↑”. In addition, the “serum 8-OHdG” value in the test on 8-OHdG (dog group 1, mannoheptulose diet vs control diet, FIG. 9) is on record as “significantly lower serum 8-OHdG”. In addition, in the test on 8-OHdG (setting [1]), the DNA damage entry is listed as “↓”.
